Key:
[1] = molecular target: PAF specific receptor binding site on rabbit platelet plasma membranes (Oryctolagus cuniculus, UniProt G1TEI7); test: Inhibition of 3H-PAF binding to rabbit platelet plasma membrane; details: for inhibition at 0.03 µM: .03 μM; for inhibition at 0.1 µM: .1 μM; for inhibition at 0.3 µM: .3 μM
Description: A. In Vitro Assay: In vitro, they inhibit PAF-induced functions in both the cellular and tissue levels by disturbing the PAF binding to its specific receptor site. The ability of a compound of formula (I) to inhibit the PAF binding to its specific receptor binding site on rabbit platelet plasma membranes was measured by an assay recently developed by us.
The inhibition of H^3 -PAF binding to the rabbit platelet plasma membrane by a PAF-antagonist of Formula (I) was determined by a method employing isotopic labeling and filtration techniques. Generally, a series of Tris-buffered solutions of the selected antagonist at predetermined concentrations were prepared. Each of these solutions contains 1 pmole of ^3 H-PAF, a known amount of the test antagonist, and a sufficient amount of the pH 7.5 Tris-buffer solution (10 mM Tris, 0.25% bovine serum albumin, and 150 mM NaCl per ml water) to make the final volume of 1 ml. After adding into a set of test tubes each with 100 μg of the platelet plasma membrane suspension (S. B. Hwang, et al., Biochemistry, 1983) and one of the Tris-buffer solutions described above, the resulting mixture in each test tube was incubated at 0° C. for about one hour or until the reaction was complete. Two control samples, one of which (C1)contains all the ingredients described above except the antagonist and the other (C2) contains C1 plus a 1000-fold excess of unlabeled PAF, were also prepared and incubated simultaneously with the test samples. After the incubation was completed, the contents of each test tube were filtered under vacuo through a Whatman GF/C fiberglass filter and the residue washed rapidly several times with a total of 20 ml cold (0°-5° C.) Tris-buffer solution. Each washed residue was then suspended in 10 ml scintillation solution (Aquasol 2, New England Nuclear, Connecticut) and the radioactivity was counted in a Packard Tri-Carb 460CD Liguid Scintillation System. Defining the counts from a test sample as "Total binding with antagonist"; the counts from the control sample C1, as "Total binding C1 "; and the counts from the control sample C2 as "nonspecific binding C2 ", the percent inhibition of each test antagonist can be determined by the following equation: [formula]

[2] = test system: PAF-induced symptoms (increased vascular permeability, increased degranulation); test: Oral activity in inhibiting PAF-induced symptoms in rats; type: in vivo; details: rat
Excerpt: B. In vivo Assay: Protocol for Assay of Oral Activity of PAF-antagonists in inhibiting PAF-induced symptoms including decreased arterial blood flow, increased vascular permeability and increased degranulation in rats
Animals: Female, Wiston rats, 190-220 g
2. Weigh the rats the morning after fasting.
3. Suspend a test compound in 0.5% methylcellulose with 12 ounce hand homogenizer or a sonicator if necessary to yield a fine suspension. […]
4. One hour after dosing, anesthetize the rat with sodium Nembutal (i.p.).
5. One and a quarter hours after dosing, cannulate surgically the left femoral vein and artery of the rat.
6. One and a half hours after dosing, infuse through cannulated vein 0.5 nannomoles (n moles) per 200 g body weight of the rat. Take blood samples from the cannulated femoral artery at 1.5, 3, 5, 8, 11, 15, 20 25 and 30 minute intervals. After the beginning of the PAF infusion as well as just before the PAF infusion, measure the following three parameters for each blood sample:
(§1) (a) the arterial blood flow rate: determined by measuring the time to fill a pre-calibrated 14 μl capillary tube;
(b) the vascular permeability: measured by calculating the increased hematocrit which results from loss of plasma from the circulation to extra-vascular spaces.
(c) the circulatory degranulation: determined by assaying the increased plasma level of N-acetylglucosaminidase, a marker lysosomal enzyme.
7. Determine the percent change in each parameter of a blood sample at each post-PAF interval including the 30 minute interval, relative to the pre-PAF blood values.
(§2) 8. Calculate the percent inhibition by the formula: [formula]

[3] = test system: soluble immune complex induced effects; test: Method B: oral activity in inhibiting soluble immune complex induced effects in rats; type: in vivo; details: rat, 50 mg/kg
Description: Method B: Protocol for Assay of Oral Activity of PAF antagonists in inhibiting soluble immune complex induced effects including decreased arterial blood flow, increased vascular permeability and increased degranulation in rats.
Animals: Female, wistar rats, 190-22-g
2. Weigh the rats the morning after fasting
3. Suspend a test compound in 0.5% methylcellulose with 12 ounce hand homogenizer to yield fine suspension. Administer orally each of the rats with 2 ml of suspension such that the rat received a predetermined amount of the compound varying between 2 and 50 mg compound per kg bodyweight of the rat.
4. Soluble immune complexes (I.C.) were prepared by mixing 2.4 mg human serum albumin (HSA) with 51 mg of the Igby fraction from rabbit anti-HSA antiserum in a final volume of 3.4 ml and incubating at 37° C. for 1 hour. This ratio of HSA to antibody was previously determined to be in slight antigen excess of equivalence and to result in soluble I.C. Following 37° C. incubation, the I.C. was centrifuged at 10,000 xg, 5 minute and the resulting superinstant containing the soluble I.C. stored on ice.
5. Two and one-half hours after dosing, anesthetize the rat with sodium Nembutal (i.P.)
6. Two and three-quarters hours after dosing, cannulate surgically the left femoral vein and artery of the rat. Take a blood sample from the cannulated femoral artery before the I.C. infusion and 1.5, 3, 5, 8, 11, 15, 20, 25 and 30 minutes after the I.C. infusion. Measure the following three parameter for each blood sample:
as §1
(b) the vascular permeability: measured by calculating the increased hematocit which results from loss of plasma from the circulation to extra-vascular spaces.
(c) the circulatory degranulation: determined by assaying the increased plasma level of N-acetylglucosaminidase, a marker lysopomal enzyme.
as §2

Chain of PAF specific receptor binding site on rabbit platelet plasma membranes (G1TEI7 1-342): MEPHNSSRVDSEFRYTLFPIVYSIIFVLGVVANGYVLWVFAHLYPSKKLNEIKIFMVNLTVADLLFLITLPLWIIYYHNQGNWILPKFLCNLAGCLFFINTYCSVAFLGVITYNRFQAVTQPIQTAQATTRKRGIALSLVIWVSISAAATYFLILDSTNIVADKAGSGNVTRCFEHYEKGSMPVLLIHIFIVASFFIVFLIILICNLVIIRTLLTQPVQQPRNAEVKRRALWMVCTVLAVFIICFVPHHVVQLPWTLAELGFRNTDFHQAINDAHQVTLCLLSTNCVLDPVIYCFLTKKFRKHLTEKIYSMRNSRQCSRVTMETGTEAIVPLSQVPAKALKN

inhibition at 1 µM [1] | inhibition at 0.03 µM [1] | inhibition at 0.1 µM [1] | inhibition at 0.3 µM [1] | inhibition at 5 µM [1] | PAF-antagonist activity (in words) [1] | Structure (SMILES) | % inhibition A (increased vascular permeability) ([2]; 20 mg/kg) | % inhibition B (increased degranulation) ([2]; 20 mg/kg) | further results
80% | – | – | – | 96% | most active PAF-antagonists | COc1cc([C@H]2CC[C@H](c3cc(OC)c(OC)c(OC)c3)S2)cnc1OC (relative stereo) [trans-2-(3,4,5-trimethoxyphenyl)-5-(5,6-dimethoxy-3-pyridyl)tetrahydrothiophene] | – | – | –
100% | 31% | 43% | 83% | – | – | COc1ccc([C@H]2CC[C@H](c3ccc(OC)c(OC)c3)S2)cc1OC (relative stereo) [H H 3,4-dimethoxyphenyl same as Ar trans, trans-2,5-bis-(3,4-dimethoxyphenyl)tetrahydrothiophene] | – | – | –
100% | 69% | 95% | 100% | – | most active PAF-antagonists | COc1cc([C@H]2CC[C@H](c3cc(OC)c(OC)c(OC)c3)S2)cc(OC)c1OC (relative stereo) [trans-2,5-bis (3,4,5-trimethoxyphenyl) tetrahydrothiophene] | 85% | 83% | % inhibition of decreased arterial blood flow [3]: 40%; % inhibition of increased degranulation [3]: 40%; % inhibition of increased vascular permeability [3]: 73%; % inhibition A (increased vascular permeability) ([2]; 1 mg/kg): 20%; % inhibition B (increased degranulation) ([2]; 1 mg/kg): 49%; % inhibition A (increased vascular permeability) ([2]; 5 mg/kg): 58%; % inhibition B (increased degranulation) ([2]; 5 mg/kg): 60%; % inhibition A (increased vascular permeability) ([2]; 40 mg/kg): 81%; % inhibition B (increased degranulation) ([2]; 40 mg/kg): 81%

Second part, the compound before the results:

Structure (SMILES) | inhibition at 1 µM [1] | inhibition at 0.03 µM [1] | inhibition at 0.1 µM [1] | inhibition at 0.3 µM [1] | inhibition at 5 µM [1] | PAF-antagonist activity (in words) [1] | % inhibition A (increased vascular permeability) ([2]; 20 mg/kg) | % inhibition B (increased degranulation) ([2]; 20 mg/kg) | further results
COc1ccc([C@H]2S[C@H](c3ccc(OC)c(OC)c3)[C@H](C)[C@H]2C)cc1OC (relative stereo) | 82% | 30% | 68% | 43% | – | – | – | – | –
COc1ccc([C@H]2S[C@@H](c3ccc(OC)c(OC)c3)[C@H](C)[C@H]2C)cc1OC (relative stereo) | 53% | – | – | – | 82% | – | – | – | –
COc1ccc([C@@H]2CC[C@H](c3ccc(OC)c(OC)c3)S2)cc1OC [H H 3,4-dimethoxyphenyl same as Ar cis, cis-2,5-bis-(3,4-dimethoxyphenyl)tetrahydrothiophene] | 62% | – | 25% | 41% | – | – | 41% | 35% | –
